# US7615238B2, “Plaster for the treatment of dysfunctions and disorders of nails, comprising sertaconazole” (Trommsdorff GmbH & Co. KG Arzneimitttel, priority 2001, dated 2009)
# Test system: fungi such as Trichophyton mentagrophytes, Trichophyton rubrum, Candida albicans, Microsporum canis, Aspergillus niger
# Assay: Efficacy against fungi in comparison with other antifungal agents
# Conditions: in most cases, Trichosporum, Alternaria, Acremonium, Fusarium, Scopulariopsis
substance,measurement,value
"(R,S)-1-[2-[(7-Chloro-3-benzo[b]thienyl)-methoxy]-2-(2,4-dichlorophenyl)-ethyl]-1H-imidazole [sertaconazole]","efficacy against fungi in comparison with econazole, ketonazole, miconazole, or bifonazole",higher efficacy
